We go through 29 compounds from patent publication US20110195979A1, “COMPOUNDS FOR THE TREATMENT AND PREVENTION OF INFLUENZA” (priority 2010, published 2011).

Series [1] relates to MDCK cells. The experiment in a line: Cytotoxicity to MDCK cells (compound toxicity control, MTT). To be noted: for IC50: read-out: Cytotoxicy IC50, half maximal cytotoxicity concentration to MDCK cells, MTT; for IC50 at 3 day: dog.
Another series relates to Influenza H1N1 virus. The experiment in a line: Viral cytopathic effect (CPE) assay. To be noted: read-out: CPE_EC50. It is filed as cell-based, Influenza A (H1N1). As to the method:
Cells and viruses. Madin-Darby canine kidney cell (MDCK) was purchased from American type culture collection (ATCC) and was maintained in minimal essential medium (MEM) containing 10% fetal bovine serum and antibiotics. Influenza A/Weiss/43 (H1N1), A/PR/8/34 (H1N1), and A/Hongkong/8/68 (H3N2) were purchased from ATCC and propagated in 10-day-old embryonated chicken eggs at 37° C. Virus was harvested 48 h after inoculation as pooled allantoic fluid. After a brief centrifugation (3,000 rpm at room temperature for 20 min) and virus titer measurement by a hemagglutination test, virus was aliquoted and stored at a −80° C. freezer.
Viral cytopathic effect (CPE) assay: To measure anti-influenza activity of compounds, MDCK cells were seeded into 96-well plates at a density of 5,000 cells per well. Next day, compounds were serially half-log diluted with Gibco SFM containing trypsin. Compounds and 50 pfu of virus were added into corresponding wells to make m.o.i at 0.01 and a final trypsin concentration of 2.5 μg/ml. The testing plates also contained medium control, cell control, virus control, and compound toxicity control. After a 3-day treatment, cell viability was measured with a MTT (3-(4,5-dimethylthiazol-2-yl)-2,5-diphenyltetrazolium bromide) method. Briefly, 20 μl of MTT diluted in culture medium was added into each wells and incubated at 37° C. for 4 hours. Reduced MTT (formazan) was extracted with acidic isopropanol and absorbance at wavelengths of 570 nm and 630 nm (OD570 and OD630) was read on a microtiter plate reader. After subtraction of background OD values, dose response curves of half-log concentration vs. percent protection were generated, on which half maximal effective concentration (EC50) and half maximal toxic concentration (CC50) were calculated.
(In general: Cytopathic effects are the visible damage that an infection or toxin causes in cultured cells.)

Another series relates to H1 and H2 viruses. To be noted: cited from earlier work.
Another series has as its system H3 viruses. To be noted: cited from earlier work.
For series [2], the system named is MDCK cells. The experiment in a line: in vitro. The settings on record: dog, Cytotoxicy IC50.
Where [3] appears, read: H1N1, MDCK cells, m.o.i 0.01, 3-day treatment, MTT OD, mean of triplicate experiments.
[4] abbreviates: Influenza A virus, H1N1, MDCK, 72 h.

Like-named read-outs stand apart in the source and are kept apart here. Where only a bound is given, the exact number is not on record here.

The IC50 is the concentration that inhibits the measured activity by half.

With `CC1(C)C[C@@H](O)C[C@@](C)(CNc2cc(Cl)cc(C#N)c2)C1` (relative stereo) [Example IIa-23, 3-Chloro-5-[((cis-1,5)-5-hydroxy-1,3,3-trimethyl-cyclohexylmethyl)-amino]-benzonitrile], in the series on MDCK cells [1], the IC50 worked out at 13.9 µM. For the same compound, in the series on Influenza H1N1 virus (setting [3]), the EC50 is 34 nM.

Consider `C[C@@H]1CCC[C@@H]2C[C@@H](NC(=O)c3cc(Cl)c(N)cc3O)CCN21` [BMY 27709], for which the EC50 in the series with H1 and H2 viruses (read-out: anti-flu activity EC50) is 6 to 8 µM. Further, the “activity against H3 viruses” value in the series on H3 viruses is “not H3 viruses”.

The compound `CC1(C)CC(O)CC(C)(CNc2ccc(C#N)c(Cl)c2)C1` (stereo not drawn) [Example IIa-29, 2-Chloro-4-[((cis-1,5)-5-hydroxy-1,3,3-trimethyl-cyclohexylmethyl)-amino]-benzonitrile] came in with an IC50 at 3 day in the series with MDCK cells [1] of 8.22 µM. Also, the EC50 in the series on Influenza H1N1 virus (setting [4]) amounted to 180 nM.

In the series on MDCK cells [1], `CC1(C)CC(O)CC(C)(CNc2ccc(Cl)c(C#N)c2)C1` (stereo not drawn) [Example IIa-30, 2-Chloro-5-[((cis-1,5)-5-hydroxy-1,3,3-trimethyl-cyclohexylmethyl)-amino]-benzonitrile] yielded an IC50 at 3 day of 7.99 µM. Also, in the series on Influenza H1N1 virus (setting [4]), the EC50 amounted to 140 nM.

For the compound “(cis-1,5)-5-Hydroxy-1,3,3-trimethyl-cyclohexanecarboxylic acid(4-chloro-3-trifluoromethyl-phenyl)-amide [Example IVa-22]”, the IC50 in the series with MDCK cells [1] was 7.49 µM. Besides, the EC50 in the series with Influenza H1N1 virus (setting [3]) is 165 nM.

Take `COC1CC(C)(C)CC(C)(CNc2nc3ccccc3o2)C1` (stereo not drawn) [Example IIIc-3, Benzoxazol-2-yl-((cis-1,5)-5-methoxy-1,3,3-trimethyl-cyclohexylmethyl)-amine]: in the series on Influenza H1N1 virus (setting [4]), the EC50 is 7430 nM. The same compound showed an IC50 at 3 day in the series on MDCK cells [2] greater than 50 µM.

Consider `CC1(C)CC(O)CC(C)(CNc2nccc(C(F)(F)F)n2)C1` (stereo not drawn) [Example IIIa-10, (cis-1,5)-3,3,5-Trimethyl-5-[(4-trifluoromethyl-pyrimidin-2-ylamino)-methyl]-cyclohexanol], for which the EC50 with Influenza H1N1 virus (setting [4]) is 120 nM. In addition, the IC50 at 3 day with MDCK cells [2] came to 47.8 µM.

With `CC1(C)CC(O)CC(C)(CNc2cncc(Cl)n2)C1` (stereo not drawn) [Example IIIb-1, (cis-1,3)-3-[(6-Chloro-pyrazin-2-ylamino)-methyl]-3,5,5-trimethyl-cyclohexanol], the EC50 with Influenza H1N1 virus (setting [4]) came out at 4120 nM. In the series on MDCK cells [2], this compound came in with an IC50 at 3 day greater than 50 µM.

With `C[C@H]1CC[C@H]2C(C)(C)[C@@H](O)CC[C@]23Oc2c(c(O)cc4c2CNC4=O)C[C@]13C` [stachyflin], the “block of influenza virus replication” value in the series on H1 and H2 viruses is reported as “blocked”. In addition, the “activity against H3 viruses” value in the series with H3 viruses is recorded as “not H3 viruses”.

As for `CC1(C)CC(F)(F)CC(C)(CNc2cc(F)cc(C(F)(F)F)c2)C1` (stereo not shown) [Example IIe-1, (3,3-Difluoro-1,5,5-trimethyl-cyclohexylmethyl)-(3-fluoro-5-trifluoromethyl-phenyl)-amine], the EC50 in the series with Influenza H1N1 virus (setting [4]) came out at 264 nM. The same compound had an IC50 at 3 day with MDCK cells [2] greater than 3.16 µM.

Regarding `COc1cccc(NCC2(C)CC(O)CC(C)(C)C2)c1` (stereo not drawn) [Example IIa-8, (cis-1,3)-3-[(3-Methoxy-phenylamino)-methyl]-3,5,5-trimethyl-cyclohexanol], the EC50 in the series on Influenza H1N1 virus (setting [4]) is 200 nM. The compound further yielded a half-maximal inhibitory concentration (IC50) at 3 day in the series with MDCK cells [2] greater than 50 µM.

Consider `CC1(C)CC(O)CC(C)(CNc2ccc(Cl)c(Cl)c2)C1` (stereo not drawn) [Example IIa-27, (cis-1,3)-3-[(3,4-Dichloro-phenylamino)-methyl]-3,5,5-trimethyl-cyclohexanol], for which the EC50 with Influenza H1N1 virus (setting [4]) is 68 nM. Besides, the 50% inhibitory concentration (IC50) at 3 day in the series on MDCK cells [2] was 2.49 µM.

`CC(=O)N(C(C)=O)C1CC(C)(C)CC(C)(C(=O)Nc2cccc(Cl)c2)C1` (stereo not drawn) [Example IVb-3, (cis-1,5)-Diacetylamino-1,3,3-trimethyl-cyclohexanecarboxylic acid(3-chloro-phenyl)-amide]: the EC50 in the series on Influenza H1N1 virus (setting [4]) turned out to be 3150 nM. In the series on MDCK cells [2], this compound yielded an IC50 at 3 day of 22.9 µM.

As to `CC1(C)CC(O)CC(C)(C(=O)Nc2cccc(Cl)c2)C1` (stereo not drawn) [Example IVa-3, (cis-1,5)-5-Hydroxy-1,3,3-trimethyl-cyclohexanecarboxylic acid(3-chloro-phenyl)-amide], in the series on Influenza H1N1 virus (setting [4]), the EC50 came out at 460 nM. Half-maximal inhibition in the series with MDCK cells [2] (IC50 at 3 day) required 82.1 µM.

Take `CC1(C)CC(O)CC(C)(CNc2nc3ccccc3o2)C1` (stereo not drawn) [Example IIIc-1, (cis-1,3)-3-(Benzoxazol-2-ylaminomethyl)-3,5,5-trimethyl-cyclohexanol]: the EC50 in the series on Influenza H1N1 virus (setting [4]) came to 1420 nM. In the series with MDCK cells [2], this compound came in with a half-inhibitory concentration (IC50) at 3 day of 83 µM.

Consider `CC1(C)CC(O)CC(C)(CNc2cc(C#N)cc(C(F)(F)F)c2)C1` (stereo not drawn) [Example IIa-24, 3-[((cis-1,5)-5-Hydroxy-1,3,3-trimethyl-cyclohexylmethyl)-amino]-5-trifluoromethyl-benzonitrile], for which the EC50 in the series with Influenza H1N1 virus (setting [4]) was determined as 40 nM. This compound returned an IC50 at 3 day with MDCK cells [2] of 13.2 µM.

As to `Cc1cc(C)nc(NCC2(C)CC(O)CC(C)(C)C2)n1` (stereo not drawn) [Example IIIa-13, (cis-1,3)-3-[(4,6-Dimethyl-pyrimidin-2-ylamino)-methyl]-3,5,5-trimethyl-cyclohexanol], in the series on Influenza H1N1 virus (setting [4]), the EC50 was 1370 nM. The IC50 at 3 day in the series with MDCK cells [2] was greater than 100 µM.

With `CC1(C)CC(O)CC(C)(CNc2cc(C(F)(F)F)cc(C(F)(F)F)c2)C1` (stereo not drawn) [Example IIa-25, (cis-1,3)-3-[(3,5-Bis-trifluoromethyl-phenylamino)-methyl]-3,5,5-trimethyl-cyclohexanol], in the series with Influenza H1N1 virus (setting [4]), the EC50 came out at 95 nM. Moreover, in the series on MDCK cells [2], the IC50 at 3 day is 2.83 µM.

Consider `CC1(C)CC(O)CC(C)(C(=O)Nc2cc(Br)cc(C(F)(F)F)c2)C1` (stereo not drawn) [Example IVa-15, (cis-1,5)-5-Hydroxy-1,3,3-trimethyl-cyclohexanecarboxylic acid(3-bromo-5-trifluoromethyl-phenyl)-amide], for which the EC50 in the series with Influenza H1N1 virus (setting [4]) turned out to be 55 nM. For the same compound, 7.31 µM corresponded to half-maximal inhibition in the series on MDCK cells [2] (IC50 at 3 day).

As to `CC1(C)CC(O)CC(C)(CNc2ccc(C#N)c(C(F)(F)F)c2)C1` (stereo not drawn) [Example IIa-33, 4-[((cis-1,5)-5-Hydroxy-1,3,3-trimethyl-cyclohexylmethyl)-amino]-2-trifluoromethyl-benzonitrile], in the series on MDCK cells [1], the midpoint of inhibition, the IC50 at 3 day, lay at 8.35 µM. In addition, in the series on Influenza H1N1 virus (setting [4]), the EC50 was 49 nM.

As to `CC1(C)CC(O)CC(C)(CNc2noc3ccccc23)C1` (stereo not drawn) [Example IIId-1, (cis-1,3)-3-(Benzo[d]isoxazol-3-ylaminomethyl)-3,5,5-trimethyl-cyclohexanol], in the series on Influenza H1N1 virus (setting [4]), the EC50 was 400 nM. In the series with MDCK cells [2], this compound registered a half-maximal inhibitory concentration (IC50) at 3 day greater than 50 µM.

Turning to `CC1(C)CC(C)(O)CC(C)(CNc2cc(F)cc(C(F)(F)F)c2)C1` (stereo not drawn) [Example IIg-1, (cis-1,3)-3-[(3-Fluoro-5-trifluoromethyl-phenylamino)-methyl]-1,3,5,5-tetramethyl-cyclohexanol], the EC50 in the series with Influenza H1N1 virus (setting [4]) amounted to 89 nM. Further, the IC50 at 3 day with MDCK cells [2] was greater than 3.16 µM.

Take `CN(C)C1CC(C)(C)CC(C)(CNc2cc(F)cc(C(F)(F)F)c2)C1` (stereo not drawn) [Example IIh-1, ((cis-1,5)-5-Dimethylamino-1,3,3-trimethyl-cyclohexylmethyl)-(3-fluoro-5-trifluoromethyl-phenyl)-amine]: the EC50 in the series with Influenza H1N1 virus (setting [4]) was 1700 nM. The compound further gave a concentration for half-maximal inhibition (IC50) at 3 day with MDCK cells [2] of 8.39 µM.

For `CC1(C)CC(O)CC(C)(C(=O)Nc2cc(F)cc(Cl)c2)C1` (stereo not drawn) [Example IVa-12, (cis-1,5)-5-Hydroxy-1,3,3-trimethyl-cyclohexanecarboxylic acid(3-chloro-5-fluoro-phenyl)amide], in the series on Influenza H1N1 virus (setting [4]), the EC50 was found to be 55 nM. This compound had a half-inhibitory concentration (IC50) at 3 day with MDCK cells [2] of 56.4 µM.

In the case of `CC1(C)CCCC(C)(CNc2cc(F)cc(C(F)(F)F)c2)C1` (stereo not shown) [Example IIc-1, (3-Fluoro-5-trifluoromethyl-phenyl)-(1,3,3-trimethyl-cyclohexylmethyl)-amine], in the series with Influenza H1N1 virus (setting [4]), the EC50 stood at 237 nM. In the series with MDCK cells [2], this compound registered an IC50 at 3 day of 2.32 µM.

Consider `CC(=O)NC1CC(C)(C)CC(C)(C(=O)Nc2cccc(Cl)c2)C1` (stereo not drawn) [Example IVb-2, (cis-1,5)-5-Acetylamino-1,3,3-trimethyl-cyclohexanecarboxylic acid(3-chloro-phenyl)-amide], for which, in the series with Influenza H1N1 virus (setting [4]), the EC50 stood at 4610 nM. Moreover, in the series on MDCK cells [2], the IC50 at 3 day is greater than 100 µM.

Take `CC(C)c1cccc(NCC2(C)CC(O)CC(C)(C)C2)c1` (stereo not drawn) [Example IIa-12, (cis-1,3)-3-[(3-Isopropyl-phenylamino)-methyl]-3,5,5-trimethyl-cyclohexanol]: in the series on Influenza H1N1 virus (setting [4]), the EC50 worked out at 90 nM. In the series with MDCK cells [2], this compound had an IC50 at 3 day of 6.68 µM.

For the compound `CC1(C)CC(O)CC(C)(C(=O)Nc2cccc(S(N)(=O)=O)c2)C1` (stereo not drawn) [Example IVa-10, (cis-1,5)-5-Hydroxy-1,3,3-trimethyl-cyclohexanecarboxylic acid(3-sulfamoyl-phenyl)-amide], the EC50 with Influenza H1N1 virus (setting [4]) stood at 7960 nM. In the series on MDCK cells [2], this compound had a concentration for half-maximal inhibition (IC50) at 3 day greater than 100 µM.

Turning to `CC1(C)CC(O)CC(C)(C(=O)Nc2cc(Cl)cc(Cl)c2)C1` (stereo not drawn) [Example IVa-17, (cis-1,5)-5-Hydroxy-1,3,3-trimethyl-cyclohexanecarboxylic acid(3,5-dichloro-phenyl)-amide], the EC50 in the series with Influenza H1N1 virus (setting [4]) worked out at 49 nM. In the series on MDCK cells [2], this compound had a concentration for half-maximal inhibition (IC50) at 3 day of 23.2 µM.
